The source of these data is ChEMBL document CHEMBL1134932, “Bridged bicyclic vasopressin receptor antagonists with V(2)-selective or dual V(1a)/V(2) activity” (Bioorg Med Chem Lett, 2002).

Series [1] concerns the target T1, Vasopressin V1a receptor (Homo sapiens, UniProt P37288). The series can be described thus: Inhibition of AVP mediated activation of human vasopressin V1a receptor expressed in HEK293 cells. The format is cell-based.
Target sequence in this assay (P37288 whole entry): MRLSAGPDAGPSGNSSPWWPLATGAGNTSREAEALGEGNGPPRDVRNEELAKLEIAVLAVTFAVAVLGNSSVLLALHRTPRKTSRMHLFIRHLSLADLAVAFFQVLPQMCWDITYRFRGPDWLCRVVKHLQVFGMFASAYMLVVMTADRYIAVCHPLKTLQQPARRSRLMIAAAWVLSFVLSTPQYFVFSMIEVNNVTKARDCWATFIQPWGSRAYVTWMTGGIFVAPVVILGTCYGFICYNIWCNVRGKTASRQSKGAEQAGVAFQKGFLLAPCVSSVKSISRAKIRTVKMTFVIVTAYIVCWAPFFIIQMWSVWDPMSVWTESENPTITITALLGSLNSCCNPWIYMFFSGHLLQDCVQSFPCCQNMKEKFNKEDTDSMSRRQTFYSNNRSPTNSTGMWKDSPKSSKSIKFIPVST
Series [2] concerns Rattus norvegicus. The series is described as follows: The diuretic effect in 9 male Sprague-Dawley rats after 4 hrs at a dose of 0.3 mg/kg by oral route. The format is functional, Urine.
Series [3] in a line: Oral bioavailability in rat (mature male) (dose 30 mg/kg). It counts as ADME, organism-based. To be noted: in vivo.
Series [4] is described as follows: The maximum plasma levels for the compounds were determined by LC-MS. The format is ADME, organism-based. To be noted: rat.
In series [5] the test system is Rattus norvegicus. The series can be described thus: Effective dose for reversal of AVP-Induced Hypertension in pentobarbital-anesthetized male Long-Evans rats. It counts as functional.
Series [6] has as its system Rattus norvegicus. The series can be described thus: The diuretic effect in 10 male Sprague-Dawley rats after 4 hrs at a dose of 1 mg/kg by oral route. The format is functional, Urine.
For series [7], the system named is Rattus norvegicus. The series is described as follows: The Urine osmolality in 10 male Sprague-Dawley rats after 4 hrs at a dose of 10 mg/kg by oral route. It counts as functional.
The test system of series [8] is Rattus norvegicus. The series is described as follows: The diuretic effect in 10 male Sprague-Dawley rats after 4 hrs at a dose of 10 mg/kg by oral route. The format is functional, Urine.
Series [9] concerns Rattus norvegicus. The series can be described thus: The diuretic effect in 10 male Sprague-Dawley rats after 4 hrs at a dose of 3 mg/kg by oral route. It counts as functional, Urine.
For series [10], the target named is T2, Vasopressin V2 receptor (Homo sapiens, UniProt P30518). The series can be described thus: Inhibition of AVP mediated activation of human vasopressin V2 receptor expressed in HEK293 cells. The format is cell-based.
A short description of series [11]: Half life tested in mature male rat at a dose of 30 mg/kg. It counts as ADME, organism-based. Set-up: dose 30 mg/kg. To be noted: in vivo.
Series [12] deals with Rattus norvegicus. The series can be described thus: The Urine osmolality in 10 male Sprague-Dawley rats after 4 hrs at a dose of 3 mg/kg by oral route. It counts as functional.
Series [13] deals with Rattus norvegicus. The series is described as follows: The Urine osmolality in 9 male Sprague-Dawley rats after 4 hrs at a dose of 0.3 mg/kg by oral route. The format is functional.
In series [14] the test system is Rattus norvegicus. The series is described as follows: The clearance rate in mature male rat at a intravenous dose of 3 mg/kg. The settings on record: in vivo. Set-up: dose 3 mg/kg, route intravenous. It counts as ADME, organism-based.
Series [15] concerns Rattus norvegicus. The series can be described thus: The Urine osmolality in 10 male Sprague-Dawley rats after 4 hrs at a dose of 1 mg/kg by oral route. It counts as functional.
Series [16] deals with T1, Vasopressin V1a receptor. The series is described as follows: Inhibition of [3H]Arg-vasopressin binding to recombinant human vasopressin V1a receptor.
Target sequence in this assay (P37288 whole entry): as above
Series [17] deals with T1, Vasopressin V1a receptor. The series is described as follows: Inhibition of [3H]Arg-vasopressin binding to recombinant human vasopressin V1a receptor at 0.1 uM.
Target sequence in this assay (P37288 whole entry, looked up): as the sequence (P37288 whole entry) above
Series [18] deals with T2, Vasopressin V2 receptor. The series is described as follows: Inhibition of [3H]Arg-vasopressin binding to recombinant human vasopressin V2 receptor.
The subject of series [19] is Rattus norvegicus. The series is described as follows: Excretion of potassium at a dose of 10 mg/kg in male Sprague-Dawley rats. The format is functional.
Series [20] relates to Rattus norvegicus. The series can be described thus: Excretion of sodium at a dose of 1 mg/kg in male Sprague-Dawley rats. It counts as functional.
Series [21] relates to Rattus norvegicus. The series can be described thus: Excretion of sodium at a dose of 3 mg/kg in male Sprague-Dawley rats. The format is functional.
Series [22] has as its system Rattus norvegicus. The series can be described thus: Excretion of Creatinine at a dose of 3 mg/kg in male Sprague-Dawley rats. The format is functional.
A further series deals with Cytochrome P450 2C9 (Homo sapiens, UniProt P11712). The series is described as follows: Inhibition of cytochrome P450 2C9. It counts as ADME.
Series [23] relates to Rattus norvegicus. The series can be described thus: Excretion of Creatinine at a dose of 1 mg/kg in male Sprague-Dawley rats. The format is functional.
Series [24] has as its system Rattus norvegicus. The series is described as follows: Excretion of potassium at a dose of 1 mg/kg in male Sprague-Dawley rats. The format is functional.
The test system of series [25] is Rattus norvegicus. The series can be described thus: Excretion of potassium at a dose of 3 mg/kg in male Sprague-Dawley rats. The format is functional.
Series [26] concerns Rattus norvegicus. The series is described as follows: Excretion of Creatinine at a dose of 10 mg/kg in male Sprague-Dawley rats. The format is functional.
For series [27], the system named is Rattus norvegicus. The series can be described thus: Excretion of sodium at a dose of 10 mg/kg in male Sprague-Dawley rats. The format is functional.

What is called Ki is a dissociation constant, usually derived from enzyme kinetics or from competition with a known ligand. The low end stands for higher affinity, the high end for lower affinity. Broadly, the bioavailability is dose-corrected exposure relative to a reference, in per cent. Usually Cmax stands for the maximum level reached in the sampled fluid or tissue. In general, ED50 refers to the dose that gives a 50% effect, or the effect in half of the subjects. One may read the half-life as the time needed for the level to fall by half in the phase considered. As a reminder, the IC50 is the concentration that inhibits the measured activity by half. A word on the inhibition: it is how much of the control response was suppressed.

T2 sequence (P30518 whole entry): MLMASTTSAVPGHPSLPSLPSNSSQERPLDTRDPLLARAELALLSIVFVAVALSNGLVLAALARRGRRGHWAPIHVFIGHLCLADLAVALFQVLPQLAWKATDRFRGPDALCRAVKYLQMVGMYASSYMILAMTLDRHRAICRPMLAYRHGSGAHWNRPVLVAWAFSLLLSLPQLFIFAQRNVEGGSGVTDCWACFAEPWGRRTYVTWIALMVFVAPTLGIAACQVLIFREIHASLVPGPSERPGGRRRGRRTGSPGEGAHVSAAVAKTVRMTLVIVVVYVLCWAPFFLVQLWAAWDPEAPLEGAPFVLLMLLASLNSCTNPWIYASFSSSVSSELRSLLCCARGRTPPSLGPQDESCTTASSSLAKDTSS
Chain of Cytochrome P450 2C9 (P11712 whole entry): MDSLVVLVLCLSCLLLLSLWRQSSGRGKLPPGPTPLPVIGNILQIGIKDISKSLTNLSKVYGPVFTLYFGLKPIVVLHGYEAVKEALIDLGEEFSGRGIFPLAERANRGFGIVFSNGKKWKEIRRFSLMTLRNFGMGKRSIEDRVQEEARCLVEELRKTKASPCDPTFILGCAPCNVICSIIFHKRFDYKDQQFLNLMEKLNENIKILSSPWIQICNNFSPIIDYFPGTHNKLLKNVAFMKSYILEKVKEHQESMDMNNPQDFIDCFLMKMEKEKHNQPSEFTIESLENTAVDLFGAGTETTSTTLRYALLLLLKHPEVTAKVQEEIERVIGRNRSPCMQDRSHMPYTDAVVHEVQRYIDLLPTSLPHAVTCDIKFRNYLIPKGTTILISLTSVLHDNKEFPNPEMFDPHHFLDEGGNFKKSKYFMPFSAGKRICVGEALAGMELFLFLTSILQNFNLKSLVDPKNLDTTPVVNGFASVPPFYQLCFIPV

Consider `O=C(Nc1ccc(C(=O)N2C[C@@H]3C4CCC(C4)N3Cc3ccccc32)c(Cl)c1)c1ccccc1-c1ccccc1` (some centres undefined), for which the results for the Ki at Vasopressin V1a receptor [1] and on Vasopressin V2 receptor [10] were 130 nM and 9 nM, respectively. The Urine volume is 2.5 mL with Rattus norvegicus [2], 6 mL in the series on Rattus norvegicus [6], 29.9 mL with Rattus norvegicus [8] and 15.1 mL in the series with Rattus norvegicus [9]. In series [3], this compound registered a bioavailability of 14%. The same compound showed a Cmax in [4] of 650 nM. For the same compound, the ED50 in the series on Rattus norvegicus [5] was determined as 0.217 mg/kg. Moreover, the Urine osmolality came to 138 mOsmol kg-1 with Rattus norvegicus [7], 180 mOsmol kg-1 with Rattus norvegicus [12], 444 mOsmol kg-1 in the series with Rattus norvegicus [13] and 299 mOsmol kg-1 in the series on Rattus norvegicus [15]. The half-life in series [11] was 300 min. The Clearance with Rattus norvegicus [14] is 1.2 mg/kg/µM/h.
Turning to `O=C(Nc1ccc(C(=O)N2CC3C4CCC(CC4)N3Cc3ccccc32)cc1)c1ccccc1-c1ccccc1` (centres undefined), the IC50 at Vasopressin V1a receptor [16] is about 100 nM.
Consider `O=C(Nc1ccc(C(=O)N2C[C@H]3C4CCC(C4)N3Cc3ccccc32)c(Cl)c1)c1ccccc1-c1ccccc1` (some centres undefined), for which the Urine volume turned out to be 1.4 mL in the series on Rattus norvegicus [2], 3.4 mL in the series with Rattus norvegicus [6], 19.5 mL in the series with Rattus norvegicus [8] and 9.4 mL with Rattus norvegicus [9]. In [3], this compound returned a bioavailability of 10%. The same compound displayed a peak concentration (Cmax) in series [4] of 230 nM. The Urine osmolality is on record as 172 mOsmol kg-1 with Rattus norvegicus [7], 238 mOsmol kg-1 in the series on Rattus norvegicus [12], 408 mOsmol kg-1 with Rattus norvegicus [13] and 303 mOsmol kg-1 in the series on Rattus norvegicus [15]. Also, on Vasopressin V1a receptor [17], the inhibition came to 7%. The affinity at Vasopressin V2 receptor [10], expressed as Ki, was 30 nM. The half-life in [11] is 150 min. This compound registered a Clearance in the series with Rattus norvegicus [14] of 3.3 mg/kg/µM/h.
Regarding `O=C(Nc1ccc(C(=O)N2CC3C4CCC(CC4)N3Cc3ccccc32)c(Cl)c1)c1ccccc1-c1ccccc1` (centres undefined), on Vasopressin V1a receptor [17], the inhibition amounted to 30%. The IC50 on Vasopressin V2 receptor [18] came to 4 nM.
With `O=C(Nc1ccc(C(=O)N2C[C@@H]3C4CCC(C4)N3Cc3cc(Cl)ccc32)cc1)c1ccccc1F` (some centres undefined), the Ki on Vasopressin V1a receptor [1] was 2600 nM; at Vasopressin V2 receptor [10], 180 nM. Besides, the concentration for half-maximal inhibition (IC50) stood at 26 nM on Vasopressin V2 receptor [18] and 68 nM at Vasopressin V1a receptor [16].
On to `Cc1ccc(-c2ccccc2C(=O)Nc2ccc(C(=O)N3C[C@@H]4C5CCC(C5)N4Cc4cc(Cl)ccc43)c(Cl)c2)cc1` (some centres undefined), for which the IC50 on Vasopressin V2 receptor [18] was found to be 30 nM; at Vasopressin V1a receptor [16], 35 nM.
For the compound `O=C(Nc1ccc(C(=O)N2C[C@@H]3C4CCC(C4)N3Cc3cc(Cl)ccc32)cc1)c1ccccc1C(F)(F)F` (some centres undefined), the Ki at Vasopressin V1a receptor [1] turned out to be 40 nM; at Vasopressin V2 receptor [10], 9 nM. Further, the ED50 with Rattus norvegicus [5] was 0.38 mg/kg. Moreover, the IC50 stood at 7 nM on Vasopressin V2 receptor [18] and 4 nM at Vasopressin V1a receptor [16].
With `O=C(Nc1ccc(C(=O)N2C[C@@H]3C4CCC(CC4)N3Cc3cc(Cl)ccc32)cc1)c1ccccc1Cl`, the figures for the Ki on Vasopressin V1a receptor [1] and at Vasopressin V2 receptor [10] were 620 nM and 520 nM, respectively. Moreover, the half-inhibitory concentration (IC50) on Vasopressin V2 receptor [18] worked out at 13 nM; at Vasopressin V1a receptor [16] it was 35 nM.
As to `Cc1ccc(-c2ccccc2C(=O)Nc2ccc(C(=O)N3C[C@@H]4C5CCC(C5)N4Cc4cc(Cl)ccc43)cc2)cc1` (some centres undefined), the results for the Ki at Vasopressin V1a receptor [1] and at Vasopressin V2 receptor [10] were 23 nM and 13 nM, respectively. Moreover, the Excretion with Rattus norvegicus [19] turned out to be 0.64 m equiv 4hr-1; in the series on Rattus norvegicus [20] it was 0.07 m equiv 4hr-1; in the series on Rattus norvegicus [21], 0.16 m equiv 4hr-1; with Rattus norvegicus [22], 16.2 mg/dL; in the series on Rattus norvegicus [23], 31.4 mg/dL; in the series with Rattus norvegicus [24] it was 0.3 m equiv 4hr-1. The Excretion with Rattus norvegicus [25] amounted to 0.34 m equiv 4hr-1; with Rattus norvegicus [26], 7.7 mg/dL; in the series on Rattus norvegicus [27], 0.52 m equiv 4hr-1. In series [3], this compound yielded a bioavailability of 7%. Further, the highest level in series [4] (Cmax) was 320 nM. For the same compound, the ED50 with Rattus norvegicus [5] worked out at 0.0074 mg/kg. At Cytochrome P450 2C9, this compound returned a 50% inhibitory concentration (IC50) of 7.4 µM. Further, the values for the Urine volume in the series on Rattus norvegicus [6], in the series on Rattus norvegicus [8] and in the series on Rattus norvegicus [9] were 2.9 mL, 17.8 mL and 5.8 mL, respectively. Moreover, the Urine osmolality in the series with Rattus norvegicus [7] worked out at 159 mOsmol kg-1; in the series with Rattus norvegicus [12], 226 mOsmol kg-1; in the series on Rattus norvegicus [15] it was 387 mOsmol kg-1. Further, in [11], the half-life is 150 min. In addition, the Clearance in the series on Rattus norvegicus [14] was determined as 2.1 mg/kg/µM/h.
For the compound `Cc1cc(F)cc(C(=O)Nc2ccc(C(=O)N3C[C@@H]4C5CCC(CC5)N4Cc4ccccc43)c(Cl)c2)c1`, the inhibition at Vasopressin V1a receptor [17] came out at 15%. The IC50 on Vasopressin V2 receptor [18] turned out to be 19 nM.
As to `O=C(Nc1ccc(C(=O)N2C[C@@H]3C4CCC(C4)N3Cc3cc(Cl)ccc32)cc1)c1ccccc1Cl` (some centres undefined), the figures for the inhibition constant Ki at Vasopressin V1a receptor [1] and on Vasopressin V2 receptor [10] were 130 nM and 32 nM, respectively. In addition, the IC50 on Vasopressin V2 receptor [18] was found to be 10 nM; on Vasopressin V1a receptor [16], 5 nM.
With `Cc1ccc(F)cc1C(=O)Nc1ccc(C(=O)N2Cc3cccn3Cc3ccccc32)c(Cl)c1` [LIXIVAPTAN], the results for the IC50 on Vasopressin V2 receptor [18] and at Vasopressin V1a receptor [16] were 5 nM and 150 nM, respectively. Moreover, the Ki at Vasopressin V2 receptor [10] was 90 nM.
